Experimental data as given in patent US8354111B2, “Stable cell binding chimeric peptides” (Hadasit Medical Research Services and Development Ltd., priority 2008, dated 2013).
No end group written: not given here.

Columns and labels:
[1] = Toxicity assessment, cell survival of endothelial cells; type: cell-based; details: bovine, endothelial cells (BAEC), increasing concentrations up to 1,000 ng/ml, 48 hours of exposure
Method: (§1) The chimeric peptides of the invention and the peptides from which they are derived were found safe, non-toxic, to normal cells such endothelial cells (BAEC; FIG. 9a) and fibroblasts (FF; FIG. 9B). Cells incubated with increasing concentrations (up to 1,000 ng/ml) of the chimeric peptide (black square), the haptide alone (white/empty circle) or the M-tide alone (white/empty square), maintained 100% survival. Cell survival was measured following 48 hours of exposure to the peptides.

[2] = Toxicity assessment, cell survival of fibroblasts; type: cell-based; details: human, fibroblasts (FF), increasing concentrations up to 1,000 ng/ml, 48 hours of exposure
Method: as §1

Sequence	viability at 48 h [1] [%]	viability at 48 h [2] [%]
KTRWYSMKKTTMK [haptide, KTRWYSMKKTTMK, reference compound]	100	100
KTRWYSMKKTTMKVFQKRLDGSVDFKK [chimeric peptide]	100	100
VFQKRLDGSVDFKK [M-tide, VFQKR LDGSV DFKK]	100	100
